System: S. elongatus
Test: tolerance of S. elongatus to isobutyraldehyde and isobutanol (growth by OD730)
Type: cell-based, Synechococcus elongatus PCC7942
Experimental: FIGS. 1P-1Q show S. elongatus tolerance to isobutyraldehyde and isobutanol. Effect of isobutyraldehyde (P) or isobutanol (Q) addition on growing cultures of S. elongatus as determined by optical density (OD730). At OD730 ˜1.0, isobutyraldehyde or isobutanol was added to the cultures at final concentration (mg/L) of: 0 (squares), 500 (circles), 750 (triangles), 1000 (diamonds) and 2500 (stars).
The tolerance of S. elongatus to isobutyraldehyde and isobutanol was also measured (FIG. 1P). […] In addition, the isobutyraldehyde tolerance level of S. elongatus is much higher than the concentration found in the culture medium during production. […] Thus, the in situ product removal system effectively avoids toxicity effects.
Wild-type S. elongatus and mutant strains were grown in a modified BG-11 medium with the following modifications: 50 mM NaHCO3 and 10 mg/l thiamine were added. For an experiment with 5% CO2 bubbling, 50 mM NaHCO3 was not added. Cyanobacterial cells were grown at 30° C. under fluorescent light (55 μE s^−1 m^−2), which was provided by eight 86-cm 20-W fluorescent tubes placed 15 cm from the cell culture. Cell growth was monitored by measuring OD730 of each culture.

Structure (SMILES)	effect on growth (wild-type S. elongatus, the same concentration (750 mg/l) added to growing cultures, growth by OD730)	relative toxicity to the cell (S. elongatus, isobutyraldehyde compared with isobutanol)	tolerated concentration (wild-type S. elongatus, compound added to growing cultures at OD730 ~1.0, growth by OD730)
CC(C)CO [isobutanol]	growth retardation	–	–
CC(C)C=O [isobutyraldehyde]	–	less toxic to the cell than isobutanol	up to 750 mg/l

Reference: patent publication US9145542B2, “Method for producing aldehyde from CO2” (The Regents of the University of California, priority 2008, dated 2015)
